In article PMC6920776, “Exploring Biological Activity of 4-Oxo-4H-furo[2,3-h]chromene Derivatives as Potential Multi-Target-Directed Ligands Inhibiting Cholinesterases, β-Secretase, Cyclooxygenase-2, and Lipoxygenase-5/15” (Biomolecules, 2019):
Where “and” joins values, the source holds several entries; their conditions need not be identical. Equal entries are not always repeated. Structures can show the parent of a compound that is named as a salt. Where two headings read alike, the source gives them in different places.

Key:
AChE [1] = molecular target: T1, AChE (Homo sapiens, UniProt P22303); assay: biochemical; conditions: for Selectivity index (SI): SI = IC50 (AChE)/IC50 (BChE); for IC50: recombinant human AChE, Ellman's method, triplicate
T1 sequence (P22303 32-614): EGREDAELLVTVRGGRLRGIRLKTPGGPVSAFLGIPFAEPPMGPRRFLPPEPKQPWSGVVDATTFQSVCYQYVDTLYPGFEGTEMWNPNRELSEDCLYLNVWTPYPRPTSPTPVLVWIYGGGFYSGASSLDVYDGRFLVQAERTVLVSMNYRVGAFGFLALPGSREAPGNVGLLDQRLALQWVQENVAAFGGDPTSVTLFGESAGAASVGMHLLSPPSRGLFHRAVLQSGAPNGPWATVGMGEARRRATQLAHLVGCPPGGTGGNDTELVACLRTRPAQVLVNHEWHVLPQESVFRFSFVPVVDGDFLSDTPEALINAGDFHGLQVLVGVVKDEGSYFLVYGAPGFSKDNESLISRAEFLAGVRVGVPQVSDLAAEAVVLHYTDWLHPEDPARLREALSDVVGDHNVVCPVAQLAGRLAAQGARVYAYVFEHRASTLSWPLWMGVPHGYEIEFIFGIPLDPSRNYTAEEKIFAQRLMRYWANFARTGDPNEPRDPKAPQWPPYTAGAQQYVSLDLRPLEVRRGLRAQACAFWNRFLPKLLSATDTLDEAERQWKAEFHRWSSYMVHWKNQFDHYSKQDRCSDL

BChE [2] = molecular target: T2, BChE (Homo sapiens, UniProt P06276); assay: biochemical; conditions: Ellman's method, triplicate
T2 construct: purchased Cloud-Clone Corp., through BIOCOM Africa (Pty) Ltd RPC348Hu0 2_100
T2 sequence (P06276 29-602): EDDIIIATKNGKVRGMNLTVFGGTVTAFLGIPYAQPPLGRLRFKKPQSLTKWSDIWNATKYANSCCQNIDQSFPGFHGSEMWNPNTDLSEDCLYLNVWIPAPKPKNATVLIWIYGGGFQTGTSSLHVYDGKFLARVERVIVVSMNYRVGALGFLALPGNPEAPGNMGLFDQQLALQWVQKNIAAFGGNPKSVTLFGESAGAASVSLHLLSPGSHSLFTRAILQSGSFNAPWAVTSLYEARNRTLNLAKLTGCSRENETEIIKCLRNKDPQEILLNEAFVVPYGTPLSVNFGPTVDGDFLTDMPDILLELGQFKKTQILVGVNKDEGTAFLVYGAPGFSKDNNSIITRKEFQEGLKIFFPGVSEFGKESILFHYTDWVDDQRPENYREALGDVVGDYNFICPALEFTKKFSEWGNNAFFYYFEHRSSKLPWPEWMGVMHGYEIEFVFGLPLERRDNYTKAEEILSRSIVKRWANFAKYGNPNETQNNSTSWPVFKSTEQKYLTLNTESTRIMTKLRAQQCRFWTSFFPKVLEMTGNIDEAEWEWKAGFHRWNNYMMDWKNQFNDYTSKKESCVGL
Protocol: Their anti-AChE and BChE activities were determined by spectrophotometric Ellman’s method [42]. […] The mixtures were incubated for 15 min at RT. The reaction was initiated by adding 10 µL of a mixture solution of 5 mM 5,50-dithio-bis-nitrobenzoic acid (DTNB) in 50 mM tris buffer (pH 7.7) and 10 µL acetylthiocholine (ASCh) (5 mM) in 50 mM tris buffer, pH 7.7. The hydrolysis of ASCh was determined by monitoring the formation of the yellow 5-thio-2-nitrobenzoate anion resulting from reaction of DTNB with thiocholines (SCh).
The IC50 values were determined graphically from inhibition curves (inhibitor concentration and absorbance) using the graph pad prism.

BACE-1 [3] = molecular target: T3, BACE-1 (Homo sapiens, UniProt P56817); assay: β-Secretase FRET inhibition assay; type: biochemical; conditions: pH 4.5, 60 min at 25 °C, triplicate
T3 construct: purchased Pan Vera; host or cells: baculovirus expression
T3 sequence (P56817 46-501): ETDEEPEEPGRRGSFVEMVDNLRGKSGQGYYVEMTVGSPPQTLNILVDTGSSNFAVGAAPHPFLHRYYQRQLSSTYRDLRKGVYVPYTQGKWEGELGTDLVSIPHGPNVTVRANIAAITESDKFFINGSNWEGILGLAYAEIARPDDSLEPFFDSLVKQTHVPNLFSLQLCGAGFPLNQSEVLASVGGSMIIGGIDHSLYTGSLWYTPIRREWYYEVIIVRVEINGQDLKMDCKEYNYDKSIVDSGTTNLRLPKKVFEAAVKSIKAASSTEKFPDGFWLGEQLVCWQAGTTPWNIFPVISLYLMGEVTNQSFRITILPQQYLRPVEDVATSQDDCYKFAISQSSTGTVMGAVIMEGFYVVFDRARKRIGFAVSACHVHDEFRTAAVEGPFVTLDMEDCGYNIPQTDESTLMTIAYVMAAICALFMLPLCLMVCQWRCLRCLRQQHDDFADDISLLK

COX-2 = molecular target: T4, COX-2 (Homo sapiens, UniProt P35354); assay: biochemical; conditions: duplicate runs
T4 construct: purchased Bio Vision K547
T4 sequence (P35354 18-604): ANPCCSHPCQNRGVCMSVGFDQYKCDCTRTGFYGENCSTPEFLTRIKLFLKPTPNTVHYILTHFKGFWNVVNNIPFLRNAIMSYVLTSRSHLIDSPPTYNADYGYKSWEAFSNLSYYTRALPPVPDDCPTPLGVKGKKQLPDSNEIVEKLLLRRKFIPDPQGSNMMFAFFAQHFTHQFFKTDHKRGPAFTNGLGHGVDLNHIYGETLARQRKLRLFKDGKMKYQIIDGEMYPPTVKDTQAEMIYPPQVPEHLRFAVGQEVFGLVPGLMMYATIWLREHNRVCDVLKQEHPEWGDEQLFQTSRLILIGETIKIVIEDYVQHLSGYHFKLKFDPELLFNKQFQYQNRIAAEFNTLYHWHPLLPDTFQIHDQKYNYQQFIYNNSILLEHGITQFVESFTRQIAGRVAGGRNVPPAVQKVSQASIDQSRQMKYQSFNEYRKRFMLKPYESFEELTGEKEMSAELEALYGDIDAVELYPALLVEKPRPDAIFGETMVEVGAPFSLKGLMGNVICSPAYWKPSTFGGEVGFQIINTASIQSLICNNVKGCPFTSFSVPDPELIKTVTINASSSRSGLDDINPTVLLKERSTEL
Protocol: The reagents for the COX-2 assay were prepared according to the standard protocol enclosed in the Cyclooxygenase inhibitor screening kit (Item No. K547; Bio Vision, Milpitas Blvd, Milpitas, CA USA). […] The assay mixtures in a 96-well plate were distributed as follows: two wells taken as enzyme control (10µL assay buffer) and two wells as inhibitor control (2 µL of celecoxib and 8 µL of COX assay buffer). Ten microliters of the test compounds concentrations and those of celecoxib were added to the remaining wells with the aid of a multi-channel pipette. Then, 80 µL of the reaction mix (a mixture of 76 µL COX assay buffer, 1 µL of COX probe, 2 µL of diluted COX cofactor and 1 µL of COX-2 enzyme) were added to the reaction mixture. The assay mixtures in the 96-well plate were incubated for 5 min. The reactions were initiated by the addition of 10 µL of diluted arachidonic acid and sodium hydroxide solution (10 µL of arachidonic acid and 90 µL of sodium hydroxide) to each well. The absorbance was measured using a Varioskan flash microplate spectrophotometer, and the IC50 was calculated with the aid of a graph pad prism

[4] = molecular target: T5, soybean lipoxygenases-15 (LOX-15) (Glycine max, UniProt P08170); assay: Soybean LOX-15 inhibitory assay; type: biochemical
T5 construct: purchased Cayman Chemicals 760700
T5 sequence (P08170 1-839): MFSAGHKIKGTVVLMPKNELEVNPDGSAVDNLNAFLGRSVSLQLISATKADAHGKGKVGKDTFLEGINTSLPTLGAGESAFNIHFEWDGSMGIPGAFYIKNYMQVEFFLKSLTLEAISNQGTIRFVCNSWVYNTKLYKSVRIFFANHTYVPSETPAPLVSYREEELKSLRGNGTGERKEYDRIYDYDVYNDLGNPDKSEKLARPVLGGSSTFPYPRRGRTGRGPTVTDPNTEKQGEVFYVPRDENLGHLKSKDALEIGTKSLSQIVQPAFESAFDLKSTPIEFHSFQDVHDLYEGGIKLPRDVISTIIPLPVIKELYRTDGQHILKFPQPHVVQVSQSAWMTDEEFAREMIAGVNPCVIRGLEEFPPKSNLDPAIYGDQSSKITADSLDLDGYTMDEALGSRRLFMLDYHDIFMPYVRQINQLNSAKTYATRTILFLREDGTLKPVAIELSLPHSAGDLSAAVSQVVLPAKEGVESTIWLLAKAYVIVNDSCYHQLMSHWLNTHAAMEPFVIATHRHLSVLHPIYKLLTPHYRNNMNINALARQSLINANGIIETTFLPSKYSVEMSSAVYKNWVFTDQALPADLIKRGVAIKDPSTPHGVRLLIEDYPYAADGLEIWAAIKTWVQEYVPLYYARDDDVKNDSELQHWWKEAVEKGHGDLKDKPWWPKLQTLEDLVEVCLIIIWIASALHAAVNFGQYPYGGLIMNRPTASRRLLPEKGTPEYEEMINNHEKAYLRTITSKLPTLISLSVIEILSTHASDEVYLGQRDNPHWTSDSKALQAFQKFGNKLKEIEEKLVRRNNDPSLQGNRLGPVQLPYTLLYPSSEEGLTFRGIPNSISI
Protocol: Stock solutions of the test samples prepared in DMSO were further diluted with 50 mM Tris buffer of pH 7.7 to obtain concentrations of 0.01, 0.1, 1, 10, and 100 µM. The cells of a 96-well plate where arranged as follows: two wells taken as blanks (100 µL 50mM Tris buffer pH, 7.7), two wells taken as enzyme controls (90 µL of 15-LO Standard and 10 µL of DMSO), and two as 100% initial activity wells (90 µL lipoxygenase enzyme solution and 10 µL tris buffer). Then, 90 µL of lipoxygenase enzyme solution and 10 µL of each test compound (and reference standards) from the above concentrations were added to the other wells of a 96-well plate, and the plate was incubated for 5 min at room temperature. The reaction was initiated by addition of 10 µL of the arachidonic acid to each well containing the assay mixtures. The 96-well plate was shaken for 5 min on a shaker, and 100 µL of the chromogen (solution of equal volume developing reagent 1 and 2) was added to each well to initiate the reaction. The plate was again shaken for 5 min and the absorbance read at 490 nm in a Varioskan flash microplate spectrophotometer reader. The inhibitory concentration was expressed as a percentage using the formula below. Inhibitory concentration = AInitial activity −(ASample − ABlank sample)/AInitial activity×100 where ASample is the absorbance of the reaction mixture of the test sample, ABlank sample is the absorbance of the reaction mixture containing all reagents except enzyme, and AInitial activity is the absorbance of 100% initial activity.

human LOX-5 = molecular target: T6, human LOX-5 (Homo sapiens, UniProt P09917); assay: Human LOX-5 inhibitory assay; type: biochemical
T6 construct: purchased BioVision K980
T6 sequence (P09917 1-674): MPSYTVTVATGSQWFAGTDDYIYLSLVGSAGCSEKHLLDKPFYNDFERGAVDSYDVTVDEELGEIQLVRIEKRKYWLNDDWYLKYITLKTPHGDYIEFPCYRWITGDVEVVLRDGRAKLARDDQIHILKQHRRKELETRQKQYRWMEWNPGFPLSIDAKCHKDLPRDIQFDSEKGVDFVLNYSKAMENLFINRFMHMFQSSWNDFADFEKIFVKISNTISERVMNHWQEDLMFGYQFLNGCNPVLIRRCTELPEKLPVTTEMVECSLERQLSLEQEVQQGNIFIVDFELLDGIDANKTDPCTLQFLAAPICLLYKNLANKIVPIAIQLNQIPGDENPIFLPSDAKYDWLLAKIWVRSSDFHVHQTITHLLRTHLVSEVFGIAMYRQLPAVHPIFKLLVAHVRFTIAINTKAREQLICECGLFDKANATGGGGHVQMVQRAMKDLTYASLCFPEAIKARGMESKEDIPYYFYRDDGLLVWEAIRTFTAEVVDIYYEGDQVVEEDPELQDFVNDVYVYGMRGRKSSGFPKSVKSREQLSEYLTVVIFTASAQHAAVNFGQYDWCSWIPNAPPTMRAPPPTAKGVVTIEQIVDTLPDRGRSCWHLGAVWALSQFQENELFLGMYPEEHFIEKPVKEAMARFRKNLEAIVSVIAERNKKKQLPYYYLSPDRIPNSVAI
Protocol: The reagents were prepared according to the Lipoxygenase inhibitor screening kit (Item No. K980; BioVision, Milpitas Blvd, Milpitas, CA, USA) standard protocol. Stock solutions of the test compounds were prepared in DMSO, and further diluted with 50 mM Tris HCl buffer (pH 7.7) to obtain final concentrations of 0.01, 0.1, 1, 5, and 10 µM. […] The wells of a 96-well plate were arranged as follows: two wells were taken as blanks (40 µL of assay buffer) and two as enzyme controls (2 µL of LOX-5 Standard and 38 µL of tris buffer). Two microliters (2 µL) of the test compounds (various concentration of test compounds and reference standards, respectively) followed by 38 µL of LOX assay buffer were added to the other wells of the 96-well plate in duplicate. Then, 40 µL of the reaction mixture (prepared by mixing thoroughly 36 µL of LOX assay buffer, 2 µL of LOX probe and 2 µL of LOX-5 enzyme) was added to each well containing the test mixtures, and the wells were incubated for 10 min at RT. The DMSO concentration in each reaction well was 1% to prevent enzyme structural deformation and, therefore, reduced activity. […] The percentage inhibition (%) was calculated using the equation below.
% Inhibition = Control − Test/Control×100

[5] = DPPH radical scavenging assay; conditions: 45 min in the dark, triplicate
Protocol: The DPPH radical scavenging activity of compounds 2a–i and 3a–i was evaluated following the literature method by Zhu et al.. The compounds were evaluated against ascorbic acid (Sigma Aldrich, Saint Louis, Missouri, USA) as a positive control. Various concentrations of the test compounds and control (0 µM to 40 µM) in DMSO were mixed with a solution of DPPH (0.20 mM) in methanol. The mixtures were incubated in the dark for 45 min and then the absorbances were recorded at 512 nm using Varioskan flash microplate spectrophotometer reader. All tests and analyses were run in triplicate and averaged. The inhibition was calculated in terms of percentage using the formula below: DPPH radical scavenged (%)=AbC − AbS/AbC×100 where AbC is absorbance of control and AbS the absorbance of the test sample.

AChE [6] = molecular target: T1, AChE; type: biochemical
Source text: (§1) The Lineweaver–Burk plots (plots of the inverse of velocity against the inverse of the substrate concentration) were used to ascertain the mode of inhibition of these compounds. The Dixon plots of the inverse of velocity (1/v) against the concentration of the inhibitor at each concentration of substrate were used to determine their inhibitor constants (Ki).

BChE [7] = molecular target: T2, BChE; type: biochemical
Source text: as §1

BACE-1 [8] = molecular target: T3, BACE-1; assay: Kinetic study against β-secretase (Lineweaver-Burk and Dixon plots); type: biochemical
Source text: The Lineweaver–Burk plot (plot of the inverse of velocity (1/v) against the inverse of the substrate concentration (1/[S])) was used to ascertain the mode of inhibition of this compound.

[9] = tested on: breast cancer MCF-7 cell line; assay: MTT antigrowth assay, MCF-7; type: cell-based; conditions: preliminary results, read-out: IC50 antigrowth effect, MCF-7
Protocol: (§2) Briefly, the Hek293-T cells and MCF-7 cancer cells were seeded in a 96-well plate at a density of 20 × 10^3 cells per well, and then incubated at 37 °C in 5% CO2 to allow cell attachment. The medium was removed and replaced with fresh medium containing various concentrations of the test sample and doxorubicin hydrochloride (10, 25, 50, 100, and 200 μM) and incubated for 24 h. After treatment for 24 h, 10 μL MTT (5 mg/mL) was added to each well and the plate was further incubated for 4 h. The supernatant was removed, and 100 μL of DMSO was added to each well to dissolve the resulting formazan crystals. The absorbance was read at 570 nm using the Varioskan flash microplate spectrophotometer reader and the cell viability. The percentages of cell viability were used to determine the IC50 values.

Hek293-T cells = assay: MTT cytotoxicity assay, Hek293-T; conditions: up to a concentration of 50 μM
Protocol: as §2

[10] = Lineweaver-Burk and Dixon plots

Compound	Selectivity index (SI) (AChE [1])	IC50 (AChE [1])	IC50 (BChE [2]) [µM]	IC50 (COX-2) [µM]	IC50 [5] [µM]	IC50 [4] [µM]	further results
2-(4-Chlorophenyl)-6-[(4-trifluoromethylphenyl)hydrazonomethyl]furo[3,2-h]chromen-5-one [Compound 3e]	0.5	5.4 ± 0.02 µM	9.9 ± 0.04	10.4 ± 0.03	25.9 ± 0.05	–	IC50 (BACE-1 [3]): 13.6 ± 0.02 µM; IC50 ([4]; soybean LOX-15, duplicate runs, read-out: IC50 LOX-15): 14.9 ± 0.04 µM; IC50 (human LOX-5; human LOX-5, duplicate, read-out: IC50 LOX-5): 28.5 ± 0.02 µM; Ki (AChE [6]; Dixon plot): 1.6 ± 0.01 µM; Mode of inhibition, AChE (AChE [6]; [10]): non-competitive mode of inhibition; Ki (BChE [7]; Dixon plot): 1.92 ± 0.01 µM; Mode of inhibition, BChE (BChE [7]; [10]): non-competitive mode of inhibition; Ki (BACE-1 [8]; Dixon plot, substrate 150, 300 and 450 nM): 2.5 ± 0.01 µM; Mode of inhibition, BACE-1 (BACE-1 [8]; [10]): mixed mode of inhibition; IC50 ([9]; 24 h treatment): 6.82 ± 0.02 µM; Toxicity in Hek293-T cells (Hek293-T cells): non-toxic
O=C1O[C@H]([C@@H](O)CO)C(O)=C1O [Ascorbic acid, ascorbic acid, reference compound]	–	–	–	–	4.6 ± 0.01	–	–
O=Cc1coc2c(ccc3oc(-c4ccccc4)cc32)c1=O [Compound 2a, 4-Oxo-8-phenyl-4H-furo[2,3-h]chromene-3-carbaldehyde]	0.8	25.1 ± 0.04 µM	34.2 ± 0.02	25.6 ± 0.01	10.1 ± 0.03	12.5 ± 0.03	–
O=Cc1coc2c(ccc3oc(-c4cccc(F)c4)cc32)c1=O [Compound 2b, 8-(3-Fluorophenyl)-4-oxo-4H-furo[2,3-h]chromene-3-carbaldehyde]	1.7	15.2 ± 0.03 µM	9.2 ± 0.01	43.7 ± 0.01	27.6 ± 0.02	18.6 ± 0.01	–
O=Cc1coc2c(ccc3oc(-c4ccc(F)cc4)cc32)c1=O [Compound 2c, 8-(4-Fluorophenyl)-4-oxo-4H-furo[2,3-h]chromene-3-carbaldehyde]	1.1	30.4 ± 0.01 µM	28.3 ± 0.03	15.8 ± 0.03	7.5 ± 0.02	14.3 ± 0.01	–
O=Cc1coc2c(ccc3oc(-c4cccc(Cl)c4)cc32)c1=O [Compound 2d, 8-(3-Chlorophenyl)-4-oxo-4H-furo[2,3-h]chromene-3-carbaldehyde]	1.5	19.2 µM and 19.8 µM	13.2 ± 0.05	23.1 ± 0.02	29.1 ± 0.01	22.9 ± 0.02	–
O=Cc1coc2c(ccc3oc(-c4ccc(Cl)cc4)cc32)c1=O [Compound 2e, 8-(4-Chlorophenyl)-4-oxo-4H-furo[2,3-h]chromene-3-carbaldehyde]	0.8	27.1 ± 0.04 µM	32.6 ± 0.02	18.6 ± 0.01	19.9 ± 0.01	15.2 ± 0.04	–
COc1ccc(-c2cc3c(ccc4c(=O)c(C=O)coc43)o2)cc1 [Compound 2f, 8-(4-Methoxyphenyl)-4-oxo-4H-furo[2,3-h]chromene-3-carbaldehyde]	1.6	34.2 ± 0.02 µM	21.8 ± 0.02	13.7 ± 0.04	14.3 ± 0.02	8.2 ± 0.03	IC50 (human LOX-5): 17.3 ± 0.01 µM
COc1cc(OC)cc(-c2cc3c(ccc4c(=O)c(C=O)coc43)o2)c1 [Compound 2g, 8-(3,5-Dimethoxyphenyl)-4-oxo-4H-furo[2,3-h]chromene-3-carbaldehyde]	1.1	25.3 ± 0.02 µM	23.2 ± 0.04	23.5 ± 0.03	8.3 ± 0.02	10.6 ± 0.04	IC50 (human LOX-5): 24.6 ± 0.02 µM
Cc1ccc(-c2cc3c(ccc4c(=O)c(C=O)coc43)o2)cc1 [Compound 2h, 8-(4-Methyphenyl)-4-oxo-4H-furo[2,3-h]chromene-3-carbaldehyde]	0.8	20.9 ± 0.01 µM	25.9 ± 0.03	19.8 ± 0.03	11.6 ± 0.03	9.2 ± 0.03	IC50 (human LOX-5): 28.7 ± 0.03 µM
O=Cc1coc2c(ccc3oc(C4=CCCCC4)cc32)c1=O [Compound 2i, 8-(Cyclohex-1-en-1-yl)-4-oxo-4H-furo[2,3-h]chromene-3-carbaldehyde]	0.5	15.3 ± 0.03 µM	31.6 ± 0.02	12.1 ± 0.01	15.9 ± 0.02	21.5 ± 0.02	–
O=c1c(C=NNc2ccc(C(F)(F)F)cc2)coc2c1ccc1oc(-c3ccccc3)cc12 [Compound 3a]	0.8	15.4 ± 0.01 µM	18.7 ± 0.03	29.7 ± 0.02	15.3 ± 0.01	16.3 ± 0.01	–
O=c1c(C=NNc2ccc(C(F)(F)F)cc2)coc2c1ccc1oc(-c3cccc(Cl)c3)cc12 [Compound 3d]	0.8	24.3 ± 0.03 µM	30.1 ± 0.03	30.2 ± 0.03	32.5 ± 0.03	11.8 ± 0.03	–
Cc1ccc(-c2cc3c(ccc4c(=O)c(C=NNc5ccc(C(F)(F)F)cc5)coc43)o2)cc1 [Compound 3h]	0.6	9.1 ± 0.02 µM	14.2	22.4 ± 0.01	16.3 ± 0.03	18.6 ± 0.03	–
COc1cccc2c1C(=O)c1c(O)c3c(c(O)c1C2=O)C[C@@](O)(C(=O)CO)C[C@@H]3O[C@H]1C[C@H](N)[C@H](O)[C@H](C)O1 [doxorubicin hydrochloride, reference compound]	–	–	–	–	–	–	IC50 ([9]; Homo sapiens, MCF7, 24 h treatment): 1.59 ± 0.01 µM
